Literature values in patent EP4302755B1, “PALBOCICLIB FORMULATION CONTAINING AN AMINO ACID” (Lotus Pharmaceutical Co., Ltd., priority 2022, dated 2024).
Read-outs that look alike come from different tables or passages of the source.

How the values were obtained:
[1] = at low pH (2.1-4.5)

**Q.** Which pKa (the pyridine nitrogen) does the source give for `CC(=O)c1c(C)c2cnc(Nc3ccc(N4CCNCC4)cn3)nc2n(C2CCCC2)c1=O` [Palbociclib] here?
**A.** ~4.1

**Q.** What about the pKa (the secondary piperazine nitrogen) of the same compound?
**A.** approximately 7.3

**Q.** What about the solubility [1] of the same compound?
**A.** water soluble
